Laboratory results as given in PubChem BioAssay (NCI).
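Dose response: 5 concentrations. Exposure: 48 h. Format: 96-well plates. Endpoint: linear interpolation; highest concentration if not reached. GI50 marks 50% less growth. Definition used: TGI = concentration required for complete inhibition of growth.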

Assays:
Assay in all cases: DTP human tumour cell line panel, 48 h
A549 NSCLC = test system: A549 NSCLC
HCT-116 colon = test system: HCT-116 colon
HCT-15 colon = test system: HCT-15 colon
HOP-92 NSCLC = test system: HOP-92 NSCLC
K-562 leukemia = test system: K-562 leukemia
MCF7 breast = test system: MCF7 breast
OVCAR-3 ovarian = test system: OVCAR-3 ovarian
SF-539 CNS = test system: SF-539 CNS
SNB-75 CNS = test system: SNB-75 CNS
SR leukemia = test system: SR leukemia

| Structure (SMILES) | GI50 (A549 NSCLC) [µM] | TGI (A549 NSCLC) [µM] | GI50 (HCT-116 colon) [µM] | TGI (HCT-116 colon) [µM] | GI50 (HCT-15 colon) [µM] | TGI (HCT-15 colon) [µM] | GI50 (HOP-92 NSCLC) [µM] | TGI (HOP-92 NSCLC) [µM] | GI50 (K-562 leukemia) [µM] | TGI (K-562 leukemia) [µM] | GI50 (MCF7 breast) [µM] | TGI (MCF7 breast) [µM] | GI50 (OVCAR-3 ovarian) [µM] | TGI (OVCAR-3 ovarian) [µM] | GI50 (SF-539 CNS) [µM] | TGI (SF-539 CNS) [µM] | GI50 (SNB-75 CNS) [µM] | TGI (SNB-75 CNS) [µM] | GI50 (SR leukemia) [µM] | TGI (SR leukemia) [µM] |
| --- | --- | --- | --- | --- | --- | --- | --- | --- | --- | --- | --- | --- | --- | --- | --- | --- | --- | --- | --- | --- |
| COc1cc(-c2nc(-c3ccccc3)c(-c3ccccc3)[nH]2)cc(OC)c1O | 19 | 57 | 14.4 | 27.7 | 13.3 | 41.4 | 17.6 | 35.4 | 21 | > 100 | 13.2 | 43.4 | 18.3 | 34.2 | 15.8 | 30.8 | 11.2 | 26.4 | 13.6 | 51.7 |
| Cn1c(=O)c(-c2ccccc2Cl)cc2cnc(NC3CCOCC3)nc21 | 18.2 | > 25 | 8.05 | > 25 | 9.82 | > 25 | 4.27 | 21.6 | 9.36 | > 25 | > 25 | > 25 | > 22.7 | > 25 | 11.1 | > 25 | 3.82 | > 25 | 8.3 | > 25 |
| CCN(CC)c1ccc(/C=N/NC(=O)Cc2ccc(Nc3ccnc(C(F)(F)F)c3)cc2)c(O)c1 | 1.19 | > 100 | 0.46 | > 100 | 0.373 | > 100 | 4.06 | > 100 | 0.49 | > 100 | 0.461 | > 100 | 0.473 | > 100 | 0.652 | 7.02 | 2.12 | > 61.1 | 0.285 | > 19.9 |
| O=c1c(I)c[nH]cc1I | > 100 | > 100 | > 100 | > 100 | > 100 | > 100 | 67.1 | > 100 | > 100 | > 100 | > 100 | > 100 | > 100 | > 100 | > 100 | > 100 | > 100 | > 100 | > 100 | > 100 |
| C=C1C(=O)OC2CC(C)C(/C=C/C(C)=O)=CCC12 (stereo unspecified) |  | > 100 |  | > 100 |  | > 100 |  | > 100 |  | > 100 |  | > 100 |  | > 100 |  | > 100 |  | > 100 |  | > 100 |
| Fc1ccccc1CN1COc2c(cc(Cl)c3cccnc23)C1 |  | 10.9 |  | 13.2 |  | 2.23 |  | 16.8 |  | 8.41 |  | 13.7 |  | 19.2 |  | 10.6 |  | 14.7 |  | 3.85 |
| Nc1nc(SCc2ccccc2CCl)c2[nH]cnc2n1 |  |  | 16.2 | 33.8 | 14.5 | 31.1 | 20 | 67.8 | 32.4 | > 100 | 12.2 | 28.4 | 14.6 | 28.9 | 21.9 | 54 | 15.3 | 32.7 | 24.8 | > 100 |
| O=C1/C(=C/c2ccc(Cl)cc2)CCC1CNc1ccc(Cl)cc1 (stereo unspecified) |  | 38.1 |  | 44.6 |  | 15.3 |  | 50.4 |  | 21.3 |  | 10.8 |  | 21.5 |  | 23.3 |  | 85.2 |  | 43.8 |
| Cc1cccc2c(=O)c3c(O)cc(O)cc3n(C)c12 |  | > 100 |  | > 100 |  | > 100 |  | > 100 |  | > 100 |  | > 100 |  | > 100 |  | > 100 |  | > 100 |  | > 100 |
| Cc1nc2c(C)ccc([N+](=O)[O-])c2c(NCCCN(C)C)c1C |  | > 100 |  | > 100 |  | > 54.2 |  | > 100 |  | > 100 |  | > 100 |  | > 100 |  | > 100 |  | > 100 |  | > 100 |
| CCCCCCCCCCCCCCCCCc1nc(Cl)nc(Cl)c1Cl |  | > 100 |  | > 100 |  | > 100 |  | > 100 |  | > 100 |  | > 100 |  | > 100 |  | > 100 |  | > 100 |  | > 100 |
| O=[N+]([O-])c1ccccc1N=Nc1c(O)[nH]c2c(Cl)cccc12 |  | > 58.6 |  | > 66.6 |  | > 100 |  |  |  | > 100 |  | > 89.6 |  | > 85.3 |  | > 100 |  | 51.7 |  | > 69.6 |
| O=S(=O)(c1ccccc1)N1CCCC(c2ccccc2)CC1 (stereo unspecified) |  | > 100 |  | > 100 |  | > 100 |  | > 100 |  | > 100 |  | 53.7 |  | > 100 |  | > 100 |  | 94.6 |  | > 100 |
| O=C(/C=C/c1ccc(O)c(O)c1)N1CCN(c2ccc(Cl)cc2)CC1 | 5.7 | 60.2 | 5.18 | 19.8 | 3.83 | 29.2 | 2.42 | 23.4 | 4.77 | 58.7 | 6.08 | 25 |  |  | 4.4 | 21.1 | 2.93 | 30.2 | 3.94 | 34 |
| NC(=NCCCCCCN=C(N)/N=C(\N)Nc1ccc(Cl)cc1)/N=C(\N)Nc1ccc(Cl)cc1 | 1.05 | 5.3 | 1.74 | 6.12 | 2 | 9.46 | 1.41 | 3.8 |  |  | 1.6 | 5.49 | 1.45 | 3.55 | 1.62 | 3.98 | 1.03 | 2.92 | 0.945 | 2.37 |
| CCCN1C(=O)/C(=C/c2ccc(SC(F)(F)F)cc2)SC1=Nc1ccc(OC)cc1 | 8.87 | 30.1 | 6.29 | 17.5 | 2.65 | 36.9 | 6.6 | 19.8 | 23.1 | > 50 | 15.6 | > 50 | 13.5 | 31.1 | 9.96 | 21.6 |  |  | 37.7 | > 50 |
